Numbered stars: 1 amine (or outer) side, 2 acyl side, 3 side chain; on linkers, the order of the positions; unused ones are H or OH. Bridge positions count the residues as written; N and C are the ends. Square brackets hold non-standard residues; d marks the D form. Ends that are not written are not given here. Peptide text beside a SMILES is read from it. dAbu(3S-yl) = C[C@@H]([C@@H](N[*:1])C(=O)[*:2])[*:3]; pGlu = O=C1CC[C@@H](C(=O)O)N1
What was measured:
Assay type in all cases: cell-based
[1] = biological target: T1, GAL2R (Homo sapiens, UniProt O43603); test: Fluo-4 Direct calcium assay (Ca efflux) in HEK293 cells overexpressing GAL2R; conditions: Table 3; HEK293 cells stably overexpressing GAL2R; Fluo-4, from 10 µM; (average) ratio, (n) in cell = number of assays; NA = ratio above 1000
T1 sequence (O43603 1-387): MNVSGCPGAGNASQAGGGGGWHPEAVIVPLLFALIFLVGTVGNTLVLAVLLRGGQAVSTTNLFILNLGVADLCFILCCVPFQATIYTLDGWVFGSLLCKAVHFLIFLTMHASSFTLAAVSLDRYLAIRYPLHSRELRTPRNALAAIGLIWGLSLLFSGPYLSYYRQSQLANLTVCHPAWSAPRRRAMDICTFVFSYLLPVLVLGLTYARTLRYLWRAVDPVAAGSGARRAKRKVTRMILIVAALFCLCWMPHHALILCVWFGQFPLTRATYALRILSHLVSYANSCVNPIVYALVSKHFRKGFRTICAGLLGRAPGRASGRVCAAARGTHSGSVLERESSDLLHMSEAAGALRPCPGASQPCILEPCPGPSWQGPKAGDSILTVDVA
Description: Calcium efflux was measured by using a Fluo-4 Direct Calcium Assay purchased from Thermo Fisher Scientific. HEK293 cells with stable overexpression of GAL2R (HEKR2) (kindly provided by Harald Dargatz, Molecular, Cellular and Pharmacobiology Section, Institute of Pharmaceutical Biology, University of Bonn, 53,115 Bonn, Germany) were used for analysis of the lanthipeptides. HEKR2 cells were seeded in a 96-well plate and grown overnight in DMEM supplemented with 10% FBS, 1% penicillin–streptomycin, 100 µg/ml Normocin, and 500 µg/ml G418 at 37 °C, 5% CO2 in a humidified incubator.
The next day, when the cells were nearly confluent, an equal amount of 2 × Fluo-4 Direct™ calcium reagent loading solution, containing 5 mM probenecid, was added to the wells, and the plate was incubated for 1 h at 37 °C. A serial 3 × dilution of the agonist compound in water was made, and 10 µl of the serial dilutions was applied to the cells in duplicate. The starting concentration of agonist in the assay was 10 µM. After 1–2 h of incubation at room temperature, the fluorescence was measured with excitation at 485/20 nm and emission at 528/20 nm with a Synergy HT Biotek reader.

[2] = biological target: T2, GAL1R (Homo sapiens, UniProt P47211); test: cAMP Hunter eXpress GAL1R CHO-K1 GPCR assay (inhibition of forskolin-induced cAMP); parameters: expressed in transfected cells; conditions: Table 3; CHO-K1 cells expressing GAL1R; 20 µM forskolin; 10 µM to 5 nM; (average) ratio, (n) in cell = number of assays; NA = ratio above 1000
T2 sequence (P47211 1-349): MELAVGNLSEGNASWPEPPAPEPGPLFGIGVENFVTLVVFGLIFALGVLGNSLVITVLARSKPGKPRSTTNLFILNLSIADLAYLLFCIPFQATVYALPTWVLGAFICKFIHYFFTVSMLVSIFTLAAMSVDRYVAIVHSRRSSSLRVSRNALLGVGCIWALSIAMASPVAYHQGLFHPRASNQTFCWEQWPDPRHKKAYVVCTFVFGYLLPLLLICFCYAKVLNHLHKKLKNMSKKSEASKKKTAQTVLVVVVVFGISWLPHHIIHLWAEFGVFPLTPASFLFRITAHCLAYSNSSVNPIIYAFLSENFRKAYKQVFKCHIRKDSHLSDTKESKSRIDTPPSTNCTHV
Description: To evaluate the ability of lanthipeptides to […] via GAL1R signaling, we used the cAMP Hunter™ eXpress GAL1R CHO-K1 GPCR Assay from Eurofins-DiscoverX. The assay was performed according to the manufacturer’s instructions. Briefly, for one assay, CHO-K1 cells expressing GAL1R were diluted in AssayComplete™ Cell Plating 2 Reagent, and 100 µl was seeded into each well of a 96-well plate. The plate was incubated at 37 °C, 5% CO2 in a humidified incubator. After 24 h of incubation, the media was aspirated, and 45 µl cell assay buffer/antibody mixture was added to all wells. […] Fifteen µl of the serial dilutions was applied in duplicates to the cells. The concentration of forskolin in the assay was 20 µM. The agonists were incubated for 30 min at 37 °C. Next, 15 µL Antibody Solution and 60 μL cAMP Working Detection Solution were added, and the plate was incubated for 1 h in the dark at room temperature. Finally, 60 μL cAMP Solution A was added and, after 3 h of incubation in the dark at room temperature, the chemiluminescent signal was read with a Synergy HT Biotek reader.

[3] = biological target: T2, GAL1R; test: PathHunter eXpress β-arrestin recruitment assay, GAL1R; parameters: expressed in transfected cells; conditions: Table 3; CHO-K1 cells co-expressing GAL1R and β-arrestin 2; 10 µM to 5 nM; (average) ratio, (n) in cell = number of assays; NA = ratio above 1000
Description: (§1) To evaluate the ability of lanthipeptides to recruit ß-arrestins via GAL1R or via GAL2R, we used the PathHunter® eXpress GAL1R, CHO-K1, β-arrestin GPCR Assay and the PathHunter® eXpress GAL2R, CHO-K1, β-arrestin, GPCR Assay from Eurofins-DiscoverX. The assays were performed according to the manufacturer’s instructions. Briefly, for one assay, CHO-K1 cells co-expressing GAL1R or GAL2R and β-arrestin (isoform 2) were diluted in AssayComplete™ Cell Plating Reagent, and 100 µl was seeded into each well of a 96-well plate. The plate was incubated at 37 °C, 5% CO2 in a humidified incubator. A serial 3 × dilution of the lanthipeptides in water was made (10 µM to 5 nM). After 48 h of incubation, 10 µl of the serial dilutions was applied to the cells in duplicate. The agonists were incubated for 90 min at 37 °C. Next, 55 µL of Working Detection Solution was added, and after 1 h of incubation at room temperature in the dark, the chemiluminescent signal was read with a Synergy HT Biotek reader.

[4] = biological target: T1, GAL2R; test: PathHunter eXpress β-arrestin recruitment assay, GAL2R; parameters: expressed in transfected cells; conditions: Table 3; CHO-K1 cells co-expressing GAL2R and β-arrestin 2; 10 µM to 5 nM; (average) ratio, (n) in cell = number of assays; NA = ratio above 1000
Description: as §1

Compound | EC50 ratios to Gal-(1-15), GAL2R Ca-efflux [1] | EC50 ratios to Gal-(1-15), GAL1R cAMP [2] | EC50 ratios to Gal-(1-15), GAL1R ß-Arrestin [3] | EC50 ratios to Gal-(1-15), GAL2R ß-Arrestin [4]
CC(C)C[C@H](NC(=O)[C@H](CC(C)C)NC(=O)[C@H](Cc1ccc(O)cc1)NC(=O)CNC(=O)[C@H](C)NC(=O)[C@H](C)NC(=O)[C@H](CC(N)=O)NC(=O)[C@H](CC(C)C)NC(=O)[C@H](CC(N)=O)NC(=O)[C@H](Cc1c[nH]c2ccccc12)NC(=O)[C@@H]1CCC(=O)N1)C(=O)NCC(=O)N[C@@H](C)C(=O)N[C@H]1C(=O)N[C@@H](C)C(=O)N[C@@H](C(C)C)C(=O)N[C@H](C(=O)N[C@@H](CC(N)=O)C(=O)N[C@@H](Cc2c[nH]cn2)C(=O)N[C@@H](CCCNC(=N)N)C(=O)O)CS[C@H]1C [Variant M54] ([pGlu]WNLNAAGYLLGA[dAbu(3S-yl)]AVCNHR-OH; thioether 14-17; C-terminus assumed) | 3.3 (3) | 140 (2) | 4.5 (2) | 1.2 (3)
CC(C)C[C@H](NC(=O)[C@H](CC(C)C)NC(=O)[C@H](Cc1ccc(O)cc1)NC(=O)CNC(=O)[C@H](C)NC(=O)[C@H](C)NC(=O)[C@H](CC(N)=O)NC(=O)[C@H](CC(C)C)NC(=O)[C@H](CC(N)=O)NC(=O)[C@H](Cc1c[nH]c2ccccc12)NC(=O)[C@@H]1CCC(=O)N1)C(=O)NCC(=O)N1CCC[C@H]1C(=O)N[C@@H](Cc1c[nH]cn1)C(=O)N[C@@H](C)C(=O)N[C@H]1C(=O)NCC(=O)N[C@@H](CC(N)=O)C(=O)N[C@H](C(=O)N[C@@H](CCCNC(=N)N)C(=O)O)CS[C@H]1C [Variant M74b] ([pGlu]WNLNAAGYLLGPHA[dAbu(3S-yl)]GNCR-OH; thioether 16-19; C-terminus assumed) | 2.6 (3) | 13.3 (1) | 129 (1) | 4.2 (1)
GWNLNAAGYLLATHACG (also: sidechain bridge or staple (positions not given here)) [Variant M89, methyllanthionine-containing galanin variant produced in L. lactis] | 2.7 (1) | NA (1) (NA is not active; ratios above 1000 were considered to be not active) | 148 (1) | 3 (1)
GWNLNAAGYLLATHACGNHR (also: sidechain bridge or staple (positions not given here)) [Variant M50, methyllanthionine-containing galanin variant produced in L. lactis] | 3.5 (2) | 12.5 (1) | 3.8 (1) | 0.5 (1)
GWNLNAAGYLLGATAVC (also: sidechain bridge or staple (positions not given here)) [Variant M90, methyllanthionine-containing galanin variant produced in L. lactis] | 4.6 (1) | 4.9 (1) | 2.7 (1) | 3.2 (1)
GWNLNAAGYLLGATAVCNHR (also: sidechain bridge or staple (positions not given here)) [Variant M51, methyllanthionine-containing galanin variant produced in L. lactis] | 2.9 (2) | 3.6 (1) | 1.5 (2) | 0.6 (2)
GWNLNAAGYLLGATAVGCHR (also: sidechain bridge or staple (positions not given here)) [Variant M76, methyllanthionine-containing galanin variant produced in L. lactis] | 0.9 (1) | 0.6 (1) | 1.0 (1) | 1.0 (1)
GWNLNAAGYLLGPHATGNCR (also: sidechain bridge or staple (positions not given here)) [Variant M74, methyllanthionine-containing galanin variant produced in L. lactis] | 4.7 (1) | 4.6 (1) | 2.3 (1) | 2.6 (1)
GWNLNAAGYLLGPHTVGCHR (also: sidechain bridge or staple (positions not given here)) [Variant M52, methyllanthionine-containing galanin variant produced in L. lactis] | 1.9 (1) | 7.5 (2) | 8.3 (1) | 0.6 (1)
GWNLNAAGYLLGTHACG (also: sidechain bridge or staple (positions not given here)) [Variant M84, methyllanthionine-containing galanin variant produced in L. lactis] | 6.3 (1) |  | 35 (1) | NA (1) (NA is not active; ratios above 1000 were considered to be not active)
GWNLNAATYLCGPHAVGNHR (also: sidechain bridge or staple (positions not given here)) [Variant M60, methyllanthionine-containing galanin variant produced in L. lactis] | 8.7 (1) | NA (2) (NA is not active; ratios above 1000 were considered to be not active) |  | NA (1) (NA is not active; ratios above 1000 were considered to be not active)
